Measured values reported in PMC4967823, “A single amino acid substitution in a chitinase of the legume Medicago truncatula is sufficient to gain Nod-factor hydrolase activity” (Open Biology, 2016).

Target: T1, MtCHIT5b (Medicago truncatula, UniProt A0A072UR65)
T1 construct: gene CHIT5B; without predicted signal peptide, N-terminal 6xHis tag (pET28b or pET32a for variants), E. coli BL21(DE3), Ni-NTA
Assay: reverse-phase HPLC (C18) hydrolysis assay
Type: biochemical
Settings: 25 mM sodium acetate pH 5.0, 37 C
Source text: reverse-phase HPLC (C18) hydrolysis assay on MtCHIT5b

T1 sequence (A0A072UR65 27-379): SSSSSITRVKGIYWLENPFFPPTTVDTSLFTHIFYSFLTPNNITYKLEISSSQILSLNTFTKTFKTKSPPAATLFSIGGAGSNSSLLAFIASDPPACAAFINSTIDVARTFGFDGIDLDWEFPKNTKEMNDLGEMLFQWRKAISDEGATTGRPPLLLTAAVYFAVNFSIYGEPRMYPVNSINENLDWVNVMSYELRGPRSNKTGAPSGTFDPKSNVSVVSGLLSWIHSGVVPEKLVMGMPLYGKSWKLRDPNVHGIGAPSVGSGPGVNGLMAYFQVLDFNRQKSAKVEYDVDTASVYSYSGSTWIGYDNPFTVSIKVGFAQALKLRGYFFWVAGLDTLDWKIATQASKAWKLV

Row | SMILES | Km
1 | CCCCCC/C=C\CCCCC/C=C/C(=O)N[C@H]1[C@H](O[C@H]2[C@H](O)[C@@H](NC(C)=O)[C@H](O[C@H]3[C@H](O)[C@@H](NC(C)=O)[C@H](O[C@H]4[C@H](O)[C@@H](NC(C)=O)C(O)O[C@@H]4COS(=O)(=O)O)O[C@@H]3CO)O[C@@H]2CO)O[C@H](COC(C)=O)[C@@H](O)[C@@H]1O (some centres unmarked) [NodSm-IV(C16 : 2, Ac, S)] | 96.9 ± 18.8 µM
2 | CCCCCC/C=C\CCCCC/C=C/C(=O)N[C@H]1[C@H](O[C@H]2[C@H](O)[C@@H](NC(C)=O)[C@H](O[C@H]3[C@H](O)[C@@H](NC(C)=O)[C@H](O[C@H]4[C@H](O)[C@@H](NC(C)=O)C(O)O[C@@H]4COS(=O)(=O)O)O[C@@H]3CO)O[C@@H]2CO)O[C@H](CO)[C@@H](O)[C@@H]1O (some centres unmarked) [NodSm-IV(C16 : 2, S)] | 58.6 ± 11.4 µM
